Results taken from PubChem BioAssay (NCI).
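Compound exposure: 48 hours, 5 concentrations, 96-well plates. TGI marks complete inhibition of growth.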

Key:
Experiment in all cases: growth of human tumour cells (NCI), 48 h
[1] = tested on: SK-OV-3 ovarian
[2] = tested on: SN12C renal
[3] = tested on: TK-10 renal
[4] = tested on: M14 melanoma
[5] = tested on: CAKI-1 renal
[6] = tested on: SW-620 colon
[7] = tested on: SK-MEL-5 melanoma
[8] = tested on: MDA-N
[9] = tested on: HCC-2998 colon
[10] = tested on: MDA-MB-435
[11] = tested on: NCI-H522 lung
[12] = tested on: SF-295 CNS
[13] = tested on: SNB-75 CNS
[14] = tested on: UACC-257 melanoma
[15] = tested on: HS 578T breast
[16] = tested on: SF-268 CNS
[17] = tested on: OVCAR-8 ovarian
[18] = tested on: MDA-MB-231 breast
[19] = tested on: SF-539 CNS
[20] = tested on: PC-3 prostate
[21] = tested on: NCI/ADR-RES ovarian
[22] = tested on: CCRF-CEM leukemia
[23] = tested on: HCT-116 colon
[24] = tested on: OVCAR-5 ovarian
[25] = tested on: OVCAR-4 ovarian
[26] = tested on: HCT-15 colon
[27] = tested on: HOP-92 NSCLC
[28] = tested on: HOP-62 NSCLC
[29] = tested on: UO-31 renal
[30] = tested on: RXF 393 renal
[31] = tested on: MCF7 breast
[32] = tested on: K-562 leukemia
[33] = tested on: SK-MEL-2 melanoma
[34] = tested on: LOX IMVI melanoma
[35] = tested on: SNB-19 CNS
[36] = tested on: SK-MEL-28 melanoma
[37] = tested on: ACHN renal
[38] = tested on: T-47D breast
[39] = tested on: 786-0 renal
[40] = tested on: UACC-62 melanoma
[41] = tested on: DU-145 prostate
[42] = tested on: HL-60(TB) leukemia
[43] = tested on: NCI-H460 lung
[44] = tested on: EKVX NSCLC
[45] = tested on: OVCAR-3 ovarian
[46] = tested on: U251 CNS
[47] = tested on: A549 NSCLC
[48] = tested on: BT-549 breast
[49] = tested on: IGROV1 ovarian
[50] = tested on: RPMI-8226 leukemia
[51] = tested on: COLO 205 colon
[52] = tested on: KM12 colon
[53] = tested on: NCI-H23 lung
[54] = tested on: NCI-H226 lung
[55] = tested on: HT29 colon

Measured: TGI

NCCO/C=C/C(N)C(=O)O (stereo not given)
> 100 µM: [1] | [2] | [3] | [4] | [5] | [6] | [7] | [8] | [9] | [10] | [11] | [12] | [13] | [14] | [15] | [16] | [17] | [18] | [19] | [20] | [21] | [22] | [23] | [24] | [25] | [26] | [27] | [28] | [29] | [30] | [31] | [32] | [33] | [34] | [35] | [36] | [37] | [38] | [39] | [40] | [41] | [42] | [43] | [44] | [45] | [46] | [47] | [48] | [49] | [50] | [51] | [52] | [53] | [54] | [55]
